Reference: the PolyMetriX glass transition set
± gives the standard deviation of the reports.

For *c1ccc(Oc2ccc(C(c3ccc(Oc4ccc(N5C(=O)CC(=O)N(*)C5=S)cc4)cc3)(C(F)(F)F)C(F)(F)F)cc2)cc1 (repeat unit), the glass transition temperature was 147.00 °C. In the case of *Oc1ccc(C(C)(C)c2ccc(OC(=O)CCCCC(*)=O)cc2)cc1 (repeat unit), the glass transition temperature is reported as 54.00 °C. With *Oc1ccc(-c2ccc(NC(=O)c3cc(C(=O)Nc4ccc(-c5ccc(Oc6ccc(C(C)(C)c7ccc(*)cc7)cc6)c(C(F)(F)F)c5)cc4)cc(C(C)(C)C)c3)cc2)cc1C(F)(F)F (repeat unit) the glass transition temperature was 248.50 °C. Compound *CCN(CCOC(=O)Nc1ccc(Cc2ccc(NC(=O)O*)cc2)cc1)c1ccc(/N=N/c2ccc([N+](=O)[O-])cc2)c(C)c1 (repeat unit) has a glass transition temperature of 115.00 °C. *c1ccc(-n2c(=O)c3cc4c(=O)n(*)c(=O)c4cc3c2=O)cc1 (repeat unit) showed a glass transition temperature of 417.00 °C. With *CCN(*)C(=O)CC(C)C (repeat unit) the glass transition temperature was 30.00 °C. Compound *CCCCCCCCCCCCCCC(=O)N* (repeat unit) has a glass transition temperature of -7.00 °C. In the case of *CCCCCCCCCCOc1ccc(/C=C/c2ccc(OCCCCCCCCCCOP(=O)(O*)OCCCCCCCCCCOc3ccc(/N=N/c4ccc(C#N)cc4)cc3)cc2)cc1 (repeat unit), the glass transition temperature is reported as 60.00 °C. Compound *Oc1ccc(-c2ccc(OC(=O)c3cc(CCCCC)cc(C(*)=O)c3)cc2)cc1 (repeat unit) has a glass transition temperature of 138.00 °C. Work on *O[Si](*)(C)CCCCCCCCCCC(=O)Oc1ccc(C(=O)OCCOc2ccc(C(=O)OC3CCC4(C)C(=CCC5C4CCC4(C)C(C(C)CCCC(C)C)CCC54)C3)cc2)cc1 (repeat unit) yielded a glass transition temperature of 25.00 °C. In the case of *Oc1ccc(-c2ccc(Oc3ccc(C(=O)c4cccc5cccc(C(=O)c6ccc(*)cc6)c45)cc3)cc2)cc1 (repeat unit), the glass transition temperature is reported as 226.50 °C. For *CCCNC(=O)CNC(=O)C(NC(=O)C(Cc1ccccc1)NC(=O)CCCCCCCCC(=O)NC(Cc1ccccc1)C(=O)NC(C(=O)NCC(=O)NCCCOCCOCCO*)C(C)C)C(C)C (repeat unit), the glass transition temperature was 58.00 °C. For *O[Si](C)(CCC(F)(F)F)CCC(F)(F)C(F)(F)C(F)(F)C(F)(F)C(F)(F)C(F)(F)C(F)(F)C(F)(F)C(F)(F)C(F)(F)CC[Si](*)(C)CCC(F)(F)F (repeat unit), the glass transition temperature was -11.00 °C. *CC(*)OCCCC (repeat unit) [Poly(butyl vinyl ether)] gave a glass transition temperature of -52.08 ± 1.5 °C. *C(=O)Nc1cccc(N2C(=O)CC(N3C(=O)c4ccc(*)cc4C3=O)C2=O)c1 (repeat unit) gave a glass transition temperature of 130.00 °C. In the case of *CC(*)c1ccc(B(Oc2ccc(-c3ccc(N(C)C)cc3)c3cccnc23)c2ccc(C(C)(C)C)cc2)cc1 (repeat unit), the glass transition temperature is reported as 230.00 °C. *Oc1ccc2cc(OC(=O)c3ccc(Oc4ccc(C(*)=O)cc4)cc3)ccc2c1 (repeat unit) gave a glass transition temperature of 145.00 °C. In the case of *CC(CS(=O)(=O)CCCCC)O* (repeat unit), the glass transition temperature is reported as 39.00 °C. In the case of *c1ccc(Oc2ccc(N3C(=O)c4cccc(Oc5ccc(Oc6ccc(Oc7cccc8c7C(=O)N(*)C8=O)cc6)cc5)c4C3=O)cc2)cc1 (repeat unit), the glass transition temperature is reported as 239.00 °C. *c1ccc(Oc2ccc(S(=O)(=O)c3ccc(Oc4ccc(N5C(=O)c6ccc([Si](C)(C)c7ccc8c(c7)C(=O)N(*)C8=O)cc6C5=O)cc4)cc3)cc2)cc1 (repeat unit) showed a glass transition temperature of 246.00 °C. For *CC(*)C(=O)Oc1ccc(C(=O)OC)cc1 (repeat unit), the glass transition temperature was 67.00 °C. Work on *C(=O)Nc1cccc(NC(=O)c2ccc3c(c2)C(=O)N(c2ccc(Oc4ccc5ccc(Oc6ccc(N7C(=O)c8ccc(*)cc8C7=O)cc6)cc5c4)cc2)C3=O)c1 (repeat unit) yielded a glass transition temperature of 286.00 °C. Compound *C(=O)c1ccc2c(c1)C(=O)N(c1ccc(C(=O)c3ccccc3N3C(=O)c4ccc(*)cc4C3=O)cc1)C2=O (repeat unit) has a glass transition temperature of 289.00 °C. For *Sc1cccc(Sc2ccc(Sc3ccc(*)cc3)cc2)c1 (repeat unit), the glass transition temperature was 69.00 °C. In the case of *Oc1ccc(C(=O)c2ccc(Oc3ccc(C(=O)c4ccc(C(=O)c5ccc(*)cc5)cc4)cc3)cc2)cc1 (repeat unit), the glass transition temperature is reported as 169.00 °C. With *CC(*)(C)C(=O)OCCc1ccc(/N=N/c2ccccc2)cc1 (repeat unit) the glass transition temperature was 80.00 °C. *c1ccc(Cc2ccc(N3C(=O)c4ccc(Sc5ccc6c(c5)C(=O)N(*)C6=O)cc4C3=O)c(C(C)(C)C)c2)cc1C(C)(C)C (repeat unit) showed a glass transition temperature of 300.50 °C. *Oc1ccc(C2(c3ccc(Oc4ccc(C(=O)c5ccccc5)c(-c5cc(*)ccc5C(=O)c5ccccc5)c4)cc3)c3ccccc3-c3ccccc32)cc1 (repeat unit) gave a glass transition temperature of 215.00 °C. Work on *O[Si](*)(C)CCCCCCCCCCCOc1ccc(C(=O)OC/C=C(\C)CCC=C(C)C)cc1 (repeat unit) yielded a glass transition temperature of 25.00 °C. With *CCCCCCCCCCOC(=O)c1ccc(-c2ccc(-c3ccc(C(=O)O*)cc3)cc2)cc1 (repeat unit) the glass transition temperature was 50.00 °C. Work on *Nc1ccc(NC(=O)c2ccc(C(=O)c3ccc(C(*)=O)c(C(=O)O)c3)cc2C(=O)O)cc1 (repeat unit) yielded a glass transition temperature of 317.00 °C. For *N(CCC)[Si](C)(C)C[Si](*)(C)C (repeat unit), the glass transition temperature was -20.00 °C. Compound *O[Si](*)(C)CCCCC1COC(=O)O1 (repeat unit) has a glass transition temperature of -23.4 °C. *c1nc(-c2ccccc2)nc(N(c2ccccc2)c2ncnc(N(*)c3ccccc3)n2)n1 (repeat unit) gave a glass transition temperature of 279.00 °C. *C(=O)Nc1ccc(Oc2ccc(C(C)(C)c3ccc(Oc4ccc(NC(=O)c5ccc6c(c5)C(=O)N(c5ccc(Oc7ccc8ccc(Oc9ccc(N%10C(=O)c%11ccc(*)cc%11C%10=O)cc9)cc8c7)cc5)C6=O)cc4)cc3)cc2)cc1 (repeat unit) showed a glass transition temperature of 250.00 °C. With *C(=O)c1ccc2nc(-c3ccc(-c4cnc5cc(*)ccc5n4)cc3)cnc2c1 (repeat unit) the glass transition temperature was 318.00 °C. For *CC(*)(C)C(=O)OCCCCCCN1CCN(c2ccc(/N=N/c3ccc(C#N)cc3)cc2)CC1 (repeat unit), the glass transition temperature was 77.00 °C. Work on *Oc1cc(OC(=O)c2ccc(OCC(C)CC)cc2)c(OC(=O)CCCC(*)=O)cc1OC(=O)c1ccc(OCC(C)CC)cc1 (repeat unit) yielded a glass transition temperature of 60.00 °C. In the case of *Nc1ccc(C(c2ccc(NC(=O)c3cccc(C(*)=O)c3)cc2)(C(F)(F)F)C(F)(F)F)cc1 (repeat unit), the glass transition temperature is reported as 272.00 °C. *O[Si](C)(Oc1ccc(*)cc1)c1ccccc1 (repeat unit) showed a glass transition temperature of 95.00 °C. *c1cccc(N2C(=O)C(=O)N(c3ccc(Cc4ccc(N5C(=O)C(=O)N(*)C5=O)cc4)cc3)C2=O)n1 (repeat unit) showed a glass transition temperature of 237.00 °C. In the case of *Oc1ccc(Oc2ccc(P(=O)(c3ccccc3)c3ccc(Oc4ccc(Oc5cccc(*)n5)cc4)cc3)cc2)cc1 (repeat unit), the glass transition temperature is reported as 164.00 °C. With *C(=O)c1ccc2c(c1)C(=O)N(c1ccc(Oc3ccc(C(=O)c4ccc(C(=O)c5ccc(C(=O)c6ccc(Oc7ccc(N8C(=O)c9ccc(*)cc9C8=O)cc7)cc6)cc5)cc4)cc3)cc1)C2=O (repeat unit) the glass transition temperature was 233.00 °C. *C(=O)Nc1ccc(C(=O)c2ccc(NC(=O)c3ccc4c(c3)C(=O)N(c3ccc(NC(=O)Nc5ccc(N6C(=O)c7ccc(*)cc7C6=O)cc5)cc3)C4=O)cc2)cc1 (repeat unit) gave a glass transition temperature of 212.00 °C. In the case of *CC(*)Cl (repeat unit) [Poly(vinyl chloride)], the glass transition temperature is reported as 78.42 ± 2.2 °C. *c1ccc(Oc2ccc(C(C)(C)c3ccc(Oc4ccc(N5C(=O)c6ccc(Oc7ccc(C(C)(C)c8ccc(Oc9ccc%10c(c9)C(=O)N(*)C%10=O)cc8)cc7)cc6C5=O)cc4)cc3)cc2)cc1 (repeat unit) gave a glass transition temperature of 176.00 °C. Compound *C(=O)c1cccc(C(=O)c2ccc3c(c2)C(=O)N(c2ccc(C(c4ccc(N5C(=O)c6ccc(*)cc6C5=O)cc4)(C(F)(F)F)C(F)(F)F)cc2)C3=O)c1 (repeat unit) has a glass transition temperature of 262.50 °C. *C(=O)Nc1ccc(Oc2ccc(C(C)(C)c3ccc(Oc4ccc(NC(=O)c5ccc6c(c5)C(=O)N(c5ccc(Oc7cccc8c(Oc9ccc(N%10C(=O)c%11ccc(*)cc%11C%10=O)cc9)cccc78)cc5)C6=O)cc4)cc3)cc2)cc1 (repeat unit) gave a glass transition temperature of 235.00 °C. For *Oc1ccc(C(C)(C)c2ccc(OC(=O)CCCCCCCCC(*)=O)cc2)cc1 (repeat unit), the glass transition temperature was 14.2 °C. In the case of *CC(*)c1cccc(Br)c1 (repeat unit), the glass transition temperature is reported as 102.00 °C. *CC(*)C(=O)OCCCCCn1c2ccccc2c2ccccc21 (repeat unit) gave a glass transition temperature of 53.00 °C. In the case of *Oc1ccc(NC(=O)c2ccc(P(=O)(c3ccccc3)c3ccc(C(=O)Nc4ccc(*)cc4)cc3)cc2)cc1 (repeat unit), the glass transition temperature is reported as 254.00 °C. *C(=O)Nc1cccc(NC(=O)c2ccc3c(c2)C(=O)N(c2ccc(Oc4cccc5c(Oc6ccc(N7C(=O)c8ccc(*)cc8C7=O)cc6)cccc45)cc2)C3=O)c1 (repeat unit) showed a glass transition temperature of 263.00 °C. In the case of *CCCCCCCCCCC(=O)Oc1ccc2cc(OC(=O)CCCCCCCCCCn3c(=O)c4cc5c(=O)n(*)c(=O)c5cc4c3=O)ccc2c1 (repeat unit), the glass transition temperature is reported as 66.00 °C. Compound *c1ccc2c(c1)C(=O)N(c1cccc(N3C(=O)c4ccc(C(*)(C(F)(F)F)C(F)(F)F)cc4C3=O)c1C)C2=O (repeat unit) has a glass transition temperature of 353.50 °C. Compound *Oc1ccc(/C=C2\CCC/C(=C\c3ccc(OC(=O)CCCCCCCCC(*)=O)c(OC)c3)C2=O)cc1OC (repeat unit) has a glass transition temperature of 48.1 °C. For *Oc1cccc(NC(=O)c2ccc(C(=O)c3cccc(C(=O)Nc4ccc(*)cc4)c3)cc2)c1 (repeat unit), the glass transition temperature was 237.00 °C. *C1C(=O)N(CCCCOc2ccc(-c3ccc(C#N)cc3)cc2)C(=O)C1* (repeat unit) gave a glass transition temperature of 115.00 °C. *c1ccc(OCCN(CCOc2ccc(-c3nc4ccc(Oc5ccc6nc(*)c(-c7ccccc7)nc6c5)cc4nc3-c3ccccc3)cc2)c2ccc(/C=C/c3ccc([N+](=O)[O-])cc3)cc2)cc1 (repeat unit) showed a glass transition temperature of 201.00 °C. Work on *Oc1ccc(C2(c3ccc(Oc4ccc(C(=O)c5c(C(=O)c6ccc(*)cc6)c(-c6ccccc6)c(-c6ccc7ccccc7c6)c(-c6ccc7ccccc7c6)c5-c5ccccc5)cc4)cc3)c3ccccc3-c3ccccc32)cc1 (repeat unit) yielded a glass transition temperature of 310.00 °C.
